Converted amounts (≈) assume the structure as drawn.
Tests used:
[1] = Cmax in cannulated Sprague-Dawley rat assessed as atazanavir level at 6 mg/kg equiv of atazanavir administered orally by UPLC/MS/MS analysis; format: ADME, organism-based; design: dose 6 mg/kg, route oral; settings: in vivo, po
[2] = Tmax in cannulated Sprague-Dawley rat assessed as atazanavir level at 30 mg/kg equiv of atazanavir administered orally by UPLC/MS/MS analysis; format: ADME, organism-based; settings: in vivo, po
[3] = Cmin in cannulated Sprague-Dawley rat assessed as atazanavir level at 3 mg/kg equiv of atazanavir administered orally measured after 24 hrs by UPLC/MS/MS analysis; format: ADME, organism-based; settings: in vivo, po, BLD = below limit of detection
[4] = Cmin in cannulated Sprague-Dawley rat assessed as atazanavir level at 6 mg/kg equiv of atazanavir administered orally measured after 24 hrs by UPLC/MS/MS analysis; format: ADME, organism-based; settings: in vivo, po, BLD = below limit of detection
[5] = Cmin in cannulated Sprague-Dawley rat assessed as atazanavir level at 30 mg/kg equiv of atazanavir administered orally measured after 24 hrs by UPLC/MS/MS analysis; format: ADME, organism-based; settings: in vivo, po, read-out: Cmin
[6] = Total AUC in cannulated Sprague-Dawley rat assessed as atazanavir level at 6 mg/kg equiv of atazanavir administered orally by UPLC/MS/MS analysis relative to atazanavir alone; format: ADME, organism-based; settings: in vivo, po
[7] = Total AUC in cannulated Sprague-Dawley rat assessed as atazanavir level at 30 mg/kg equiv of atazanavir administered orally by UPLC/MS/MS analysis relative to atazanavir alone; format: ADME, organism-based; settings: in vivo, po
[8] = Drug metabolism in cannulated Sprague-Dawley rat assessed as prodrug to atazanavir ratio at 6 mg/kg equiv of atazanavir administered orally by UPLC/MS/MS analysis; format: ADME, organism-based; settings: in vivo, po
[9] = Aqueous solubility of the compound in pH 3 buffer by RP-UPLC analysis; format: physicochemical
[10] = Aqueous solubility of the compound in pH 4 citrate buffer by RP-UPLC analysis; format: physicochemical
[11] = Aqueous solubility of the compound in pH 5 buffer by RP-UPLC analysis; format: physicochemical
[12] = Aqueous solubility of the compound in FaSSIF by RP-HPLC analysis; format: physicochemical
[13] = Aqueous solubility of the compound in FeSSIF by RP-HPLC analysis; format: physicochemical
[14] = Ratio of test compound to atazanavir aqueous solubility in pH 5 buffer by RP-UPLC analysis; format: physicochemical
[15] = Stability in simulated gastric fluid assessed as porcine pepsin-mediated compound hydrolysis at 1 mL measured up to 1 hr at pH 1.2 by HPLC analysis; format: ADME, Sus scrofa; settings: pig, isolated protein, pH 1.2, 1 h
[16] = Elimination half life in rat hepatocytes at 1 uM in presence of esterase inhibitor PMSF/CYP450 inhibitor ABT; format: ADME, cell-based, Hepatocyte; settings: read-out: beta t1/2
[17] = Prodrug conversion in rat hepatocytes assessed as pseudo first order rate constant for atazanavir formation at 1 uM in absence of esterase inhibitor PMSF/CYP450 inhibitor ABT; format: ADME, cell-based, Hepatocyte
[18] = Prodrug conversion in rat hepatocytes assessed as pseudo first order rate constant for atazanavir formation at 1 uM in presence of esterase inhibitor PMSF; format: ADME, cell-based, Hepatocyte
[19] = Prodrug conversion in rat hepatocytes assessed as pseudo first order rate constant for atazanavir formation at 1 uM in presence of esterase inhibitor PMSF/CYP450 inhibitor ABT; format: ADME, cell-based, Hepatocyte
[20] = Half life in rat whole blood at 1 uM by UPLC-MS/MS analysis; format: ADME, tissue-based
[21] = molecular target: T1, UDP-glucuronosyltransferase 1A1 (Rattus norvegicus, UniProt Q64550); test: Inhibition of recombinant rat UGT1A1 using beta-estradiol as substrate preincubated for 5 mins followed by substrate addition and measured after 40 mins by LC-MS/MS analysis; format: ADME
T1 sequence (Q64550 whole entry): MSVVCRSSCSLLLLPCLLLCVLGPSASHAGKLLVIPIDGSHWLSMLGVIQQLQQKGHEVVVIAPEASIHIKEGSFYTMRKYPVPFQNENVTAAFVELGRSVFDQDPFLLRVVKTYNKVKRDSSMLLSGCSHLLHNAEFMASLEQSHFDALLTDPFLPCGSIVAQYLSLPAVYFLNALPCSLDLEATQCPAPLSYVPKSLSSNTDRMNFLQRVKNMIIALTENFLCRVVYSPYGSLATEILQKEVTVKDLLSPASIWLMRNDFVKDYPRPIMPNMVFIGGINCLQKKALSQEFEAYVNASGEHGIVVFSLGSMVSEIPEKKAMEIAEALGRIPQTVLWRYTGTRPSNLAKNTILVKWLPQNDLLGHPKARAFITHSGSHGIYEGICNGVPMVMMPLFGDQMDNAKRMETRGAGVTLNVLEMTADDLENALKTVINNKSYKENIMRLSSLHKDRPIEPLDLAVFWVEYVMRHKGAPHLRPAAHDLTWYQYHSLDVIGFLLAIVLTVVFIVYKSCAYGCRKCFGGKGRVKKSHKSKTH

[22] = molecular target: T1, UDP-glucuronosyltransferase 1A1; test: Inhibition of UGT1A1 in rat liver microsomes using beta-estradiol as substrate preincubated for 5 mins followed by substrate addition and measured after 40 mins by LC-MS/MS analysis; format: ADME
UGT1A1 [23] = test: Ratio of test compound IC50 to atazanavir IC50 for recombinant cynomolgus monkey UGT1A1; format: ADME, Macaca fascicularis; settings: read-out: Ratio IC50
UGT1A1 [24] = molecular target: T2, UGT1A1 (Homo sapiens, UniProt P22309); test: Ratio of test compound IC50 to atazanavir IC50 for UGT1A1 in human liver microsomes; format: ADME; settings: read-out: Ratio IC50
T2 sequence (P22309 whole entry): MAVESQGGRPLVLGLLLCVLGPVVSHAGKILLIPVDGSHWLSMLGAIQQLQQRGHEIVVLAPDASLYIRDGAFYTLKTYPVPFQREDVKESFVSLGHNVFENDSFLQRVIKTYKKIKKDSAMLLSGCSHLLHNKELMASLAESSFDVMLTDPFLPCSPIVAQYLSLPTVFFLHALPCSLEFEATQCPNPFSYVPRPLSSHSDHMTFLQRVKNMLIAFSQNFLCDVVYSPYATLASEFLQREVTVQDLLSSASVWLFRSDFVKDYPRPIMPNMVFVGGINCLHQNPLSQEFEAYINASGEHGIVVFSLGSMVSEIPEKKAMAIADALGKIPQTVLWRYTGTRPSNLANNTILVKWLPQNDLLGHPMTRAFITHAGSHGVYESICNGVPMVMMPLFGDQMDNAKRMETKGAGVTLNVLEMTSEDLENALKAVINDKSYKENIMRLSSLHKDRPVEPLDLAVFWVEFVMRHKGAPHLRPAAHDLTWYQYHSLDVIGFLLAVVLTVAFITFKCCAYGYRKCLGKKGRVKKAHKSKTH

[25] = rat, in vivo, po, 3 mg/kg
[26] = rat, in vivo, po, 3 mg/kg; remark: listed apart in the source
Description: AUClast in cannulated Sprague-Dawley rat assessed as atazanavir level at 3 mg/kg equiv of atazanavir administered orally by UPLC/MS/MS analysis

[27] = test system: Human immunodeficiency virus 1
Description: Antiviral activity against HIV1 NL4-3 infected in human MT2 cells assessed as reduction in viral yield measured after 4 days by EnduRen live cell substrate based luciferase reporter gene assay

physchem [28] = settings: 30% CH3CN/acetate buffer, pH 4
Description: Half life in pH 4 30%CH3CN/acetate buffer at 50 mM by RP-UPLC analysis

physchem [29] = settings: phosphate buffer, pH 6.5
Description: Aqueous solubility of the compound in pH 6.5 phosphate buffer by RP-UPLC analysis

physchem [30] = settings: phosphate buffer, pH 7.4
Description: Aqueous solubility of the compound in pH 7.4 phosphate buffer by RP-UPLC analysis

in vitro = settings: human, Caco-2
Description: Efflux ratio of apparent permeability across basolateral to apical side over apical to basolateral side in human Caco2 cells

## COC(=O)N[C@H](C(=O)N[C@@H](Cc1ccccc1)[C@H](CN(Cc1ccc(-c2ccccn2)cc1)NC(=O)[C@@H](NC(=O)OC)C(C)(C)C)OC(=O)[C@@H](N)Cc1ccccc1)C(C)(C)C
[1]
  Cmax: 550 nM
[2]
  Tmax: 0.8 h
[3]
  Cmin: Bld
[4]
  Cmin: Bld
[5]
  concentration: 1 nM
[6]
  fold change (FC): 4.1
[7]
  fold change (FC): 65.3
[8]
  Ratio: 0.7
[9]
  solubility: > 3200 µg/mL
[10]
  solubility: > 1100 µg/mL
[11]
  solubility: 1300 µg/mL (≈ 1530 µM)
[12]
  solubility: 130 µg/mL (≈ 153 µM)
[13]
  solubility: > 500 µg/mL
[14]
  Ratio: 1300
[15]
  Stability: Stable
[16]
  half-life at 1 µM: > 2 h
[17]
  K: 0.0164 min⁻¹
[18]
  K: 0.0009 min⁻¹
[19]
  K: 0.0014 min⁻¹
[20]
  half-life at 1 µM: > 2 h
[21]
  IC50: 12.6 µM
[22]
  IC50: 19.5 µM
UGT1A1 [23]
  selectivity ratio: 17
UGT1A1 [24]
  selectivity ratio: 4.2
[25]
  Tmax: 0.5 h
[26]
  AUClast: 0.573 µM·h
[27]
  EC50: 0.0009 to 1.25 µM
Physchem [28]
  half-life at 50000 µM: > 500 h
Physchem [29]
  solubility: 27 µg/mL (≈ 31.7 µM)
Physchem [30]
  solubility: 1 µg/mL (≈ 1.17 µM)
In vitro
  efflux ratio: > 8.7
